Reference: ChEMBL document CHEMBL4834430, “Design and Structure-Activity Relationships of Isothiocyanates as Potent and Selective N-Acylethanolamine-Hydrolyzing Acid Amidase Inhibitors” (J Med Chem, 2021)
Active and inactive are the calls of the source. The rule behind the calls is not given here.

Key:
[1] = target: Voltage-gated inwardly rectifying potassium channel KCNH2 (Homo sapiens, UniProt Q12809); assay: Inhibition of human ERG
Cytochrome P450 3A4 = Cytochrome P450 3A4 (Homo sapiens, UniProt P08684); assay: Inhibition of CYP3A4 (unknown origin); type: ADME
[2] = Oral bioavailability in CD-1 mouse plasma at 8 mg/kg measured up to 8 hrs; type: ADME, organism-based
[3] = Drug concentration in plasma of CD-1 mouse at 8 mg/kg, po administered as single cassette dose measured after 30 mins; type: ADME, organism-based
Cytochrome P450 1A2 = target: T1, Cytochrome P450 1A2 (Homo sapiens, UniProt P05177); assay: Inhibition of CYP1A2 (unknown origin); type: ADME
T1 sequence (P05177 whole entry): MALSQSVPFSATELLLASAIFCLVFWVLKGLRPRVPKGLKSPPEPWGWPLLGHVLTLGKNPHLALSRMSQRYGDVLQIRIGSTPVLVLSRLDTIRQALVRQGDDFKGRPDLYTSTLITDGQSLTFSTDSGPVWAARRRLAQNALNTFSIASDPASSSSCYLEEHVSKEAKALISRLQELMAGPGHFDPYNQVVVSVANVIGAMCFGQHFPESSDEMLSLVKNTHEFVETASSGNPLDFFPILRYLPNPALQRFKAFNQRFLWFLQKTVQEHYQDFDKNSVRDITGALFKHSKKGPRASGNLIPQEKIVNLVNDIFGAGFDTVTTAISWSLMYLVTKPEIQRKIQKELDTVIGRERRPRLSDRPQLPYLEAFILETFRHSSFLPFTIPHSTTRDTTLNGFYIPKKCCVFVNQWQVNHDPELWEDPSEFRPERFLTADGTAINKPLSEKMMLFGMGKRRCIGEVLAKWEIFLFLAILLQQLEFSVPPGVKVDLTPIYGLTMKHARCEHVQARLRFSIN

[4] = Mutagenecity in Salmonella typhimurium TA1535 in absence of S9 fraction at 5 to 100 uM by Ames test; type: toxicity; conditions: salmonella enterica subsp. enterica serovar typhimurium, s9, 100 µM; dose 5-100 µM
[5] = Half life in CD-1 mouse plasma at 2 mg/kg, iv measured up to 8 hrs; type: ADME, organism-based
[6] = Mutagenecity in Salmonella typhimurium TA100 in presence of S9 fraction at 5 to 100 uM by Ames test; type: toxicity, subcellular; conditions: salmonella enterica subsp. enterica serovar typhimurium, s9, 100 µM; dose 5-100 µM
[7] = Mutagenecity in Salmonella typhimurium TA1537 in absence of S9 fraction at 5 to 100 uM by Ames test; type: toxicity; conditions: salmonella enterica subsp. enterica serovar typhimurium, s9, 100 µM; dose 5-100 µM
[8] = AUC in CD-1 mouse plasma at 8 mg/kg, po measured up to 8 hrs; type: ADME, organism-based; parameters: route oral, dose 8 mg/kg, time <=8
Cytochrome P450 2C9 = Cytochrome P450 2C9 (Homo sapiens, UniProt P11712); assay: Inhibition of CYP2C9 (unknown origin) at 10 uM; type: ADME
[9] = Half life in mouse liver microsomes at 1 uM in presence of NADPH by LC-MS/MS analysis; type: ADME, Microsome
[10] = Clearance in CD-1 mouse plasma at 8 mg/kg, po measured up to 8 hrs; type: ADME, organism-based
Cytochrome P450 2C19 = Cytochrome P450 2C19 (Homo sapiens, UniProt P33261); assay: Inhibition of CYP2C19 (unknown origin); type: ADME
[11] = Ratio of drug concentration in brain to plasma in CD-1 mouse at 8 mg/kg, po; type: ADME, organism-based; conditions: read-out: BPR
[12] = Volume of distribution in CD-1 mouse plasma at 2 mg/kg, iv measured up to 8 hrs; type: ADME, organism-based
[13] = Mutagenecity in Salmonella typhimurium TA98 in presence of S9 fraction at 5 to 100 uM by Ames test; type: toxicity, subcellular; conditions: salmonella enterica subsp. enterica serovar typhimurium, s9, 100 µM; dose 5-100 µM
[14] = Drug concentration in plasma of CD-1 mouse at 8 mg/kg, po administered as single cassette dose measured after 60 mins; type: ADME, organism-based
[15] = Clearance in CD-1 mouse plasma at 2 mg/kg, iv measured up to 8 hrs; type: ADME, organism-based
[16] = target: Cannabinoid receptor 2 (Mus musculus) (UniProt P47936); assay: Displacement of [3H]-CP55940 from mouse CB2 receptor expressed in HEK293 cell membrane at 10 uM; type: cell membranes
Cathepsin K = target: T2, Cathepsin K (Homo sapiens, UniProt P43235); assay: Inhibition of recombinant human Cathepsin K using Z-Phe-Arg-AMC as fluorogenic substrate preincubated for 120 mins followed by substrate addition by fluorescence assay
T2 sequence (P43235 whole entry): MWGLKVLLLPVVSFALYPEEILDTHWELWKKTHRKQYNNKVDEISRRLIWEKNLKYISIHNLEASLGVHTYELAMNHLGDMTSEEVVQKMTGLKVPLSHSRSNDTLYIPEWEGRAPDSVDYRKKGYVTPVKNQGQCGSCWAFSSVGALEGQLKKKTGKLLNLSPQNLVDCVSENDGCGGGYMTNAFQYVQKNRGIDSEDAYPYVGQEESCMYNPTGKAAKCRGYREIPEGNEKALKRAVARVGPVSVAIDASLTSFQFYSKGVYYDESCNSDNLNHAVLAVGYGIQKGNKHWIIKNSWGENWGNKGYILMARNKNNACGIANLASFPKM

Cytochrome P450 2D6 = Cytochrome P450 2D6 (Homo sapiens, UniProt P10635); assay: Inhibition of CYP2D6 (unknown origin) at 10 uM; type: ADME
Cytochrome P450 2A6 = target: T3, Cytochrome P450 2A6 (Homo sapiens, UniProt P11509); assay: Inhibition of CYP2A6 (unknown origin) at 10 uM; type: ADME
T3 sequence (P11509 whole entry): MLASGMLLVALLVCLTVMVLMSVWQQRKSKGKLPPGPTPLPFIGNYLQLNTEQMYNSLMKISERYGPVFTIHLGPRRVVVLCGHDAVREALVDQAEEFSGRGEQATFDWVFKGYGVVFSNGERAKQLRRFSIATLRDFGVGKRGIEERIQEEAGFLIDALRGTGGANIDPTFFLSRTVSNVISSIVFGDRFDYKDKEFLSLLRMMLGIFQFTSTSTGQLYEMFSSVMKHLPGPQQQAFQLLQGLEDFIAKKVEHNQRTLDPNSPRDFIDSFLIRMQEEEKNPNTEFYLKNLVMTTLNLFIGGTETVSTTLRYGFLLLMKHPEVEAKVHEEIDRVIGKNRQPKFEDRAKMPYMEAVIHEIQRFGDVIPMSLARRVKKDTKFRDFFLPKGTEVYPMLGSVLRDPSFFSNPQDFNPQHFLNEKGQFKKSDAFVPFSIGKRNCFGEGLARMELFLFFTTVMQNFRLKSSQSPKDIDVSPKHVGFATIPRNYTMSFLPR

[17] = Mutagenecity in Salmonella typhimurium TA1535 in presence of S9 fraction at 5 to 100 uM by Ames test; type: toxicity, subcellular; conditions: salmonella enterica subsp. enterica serovar typhimurium, s9, 100 µM; dose 5-100 µM
[18] = Mutagenecity in Salmonella typhimurium TA100 in absence of S9 fraction at 5 to 100 uM by Ames test; type: toxicity; conditions: salmonella enterica subsp. enterica serovar typhimurium, s9, 100 µM; dose 5-100 µM
[19] = Half life in human liver microsomes at 1 uM in presence of NADPH by LC-MS/MS analysis; type: ADME, Microsome
[20] = Drug concentration in brain of CD-1 mouse at 2 mg/kg, iv administered as single cassette dose measured after 15 mins; type: ADME, organism-based; conditions: read-out: Ct
[21] = target: Sodium-dependent dopamine transporter (Homo sapiens) (UniProt Q01959); assay: Inhibition of DAT (unknown origin) at 10 uM
Sodium-dependent dopamine transporter (Homo sapiens), sequence (Q01959 whole entry): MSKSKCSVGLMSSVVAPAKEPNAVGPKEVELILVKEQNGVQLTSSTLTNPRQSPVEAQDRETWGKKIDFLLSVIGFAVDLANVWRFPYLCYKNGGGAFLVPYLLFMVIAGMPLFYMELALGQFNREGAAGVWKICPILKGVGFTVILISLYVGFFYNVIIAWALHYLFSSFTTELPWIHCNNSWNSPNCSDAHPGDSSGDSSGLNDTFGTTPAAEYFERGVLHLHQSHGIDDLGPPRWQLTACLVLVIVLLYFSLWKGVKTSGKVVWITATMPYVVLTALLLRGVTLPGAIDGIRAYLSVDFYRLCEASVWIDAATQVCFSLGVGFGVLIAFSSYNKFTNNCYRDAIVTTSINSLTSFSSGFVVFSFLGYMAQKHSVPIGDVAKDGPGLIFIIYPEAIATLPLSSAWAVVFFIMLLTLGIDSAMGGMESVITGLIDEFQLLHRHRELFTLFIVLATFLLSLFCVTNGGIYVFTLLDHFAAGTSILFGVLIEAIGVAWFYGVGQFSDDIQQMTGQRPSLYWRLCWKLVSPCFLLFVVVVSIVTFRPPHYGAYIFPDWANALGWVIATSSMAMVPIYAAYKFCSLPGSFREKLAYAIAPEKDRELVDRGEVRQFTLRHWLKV

Voltage-gated inwardly rectifying potassium channel KCNH2, sequence (Q12809 whole entry): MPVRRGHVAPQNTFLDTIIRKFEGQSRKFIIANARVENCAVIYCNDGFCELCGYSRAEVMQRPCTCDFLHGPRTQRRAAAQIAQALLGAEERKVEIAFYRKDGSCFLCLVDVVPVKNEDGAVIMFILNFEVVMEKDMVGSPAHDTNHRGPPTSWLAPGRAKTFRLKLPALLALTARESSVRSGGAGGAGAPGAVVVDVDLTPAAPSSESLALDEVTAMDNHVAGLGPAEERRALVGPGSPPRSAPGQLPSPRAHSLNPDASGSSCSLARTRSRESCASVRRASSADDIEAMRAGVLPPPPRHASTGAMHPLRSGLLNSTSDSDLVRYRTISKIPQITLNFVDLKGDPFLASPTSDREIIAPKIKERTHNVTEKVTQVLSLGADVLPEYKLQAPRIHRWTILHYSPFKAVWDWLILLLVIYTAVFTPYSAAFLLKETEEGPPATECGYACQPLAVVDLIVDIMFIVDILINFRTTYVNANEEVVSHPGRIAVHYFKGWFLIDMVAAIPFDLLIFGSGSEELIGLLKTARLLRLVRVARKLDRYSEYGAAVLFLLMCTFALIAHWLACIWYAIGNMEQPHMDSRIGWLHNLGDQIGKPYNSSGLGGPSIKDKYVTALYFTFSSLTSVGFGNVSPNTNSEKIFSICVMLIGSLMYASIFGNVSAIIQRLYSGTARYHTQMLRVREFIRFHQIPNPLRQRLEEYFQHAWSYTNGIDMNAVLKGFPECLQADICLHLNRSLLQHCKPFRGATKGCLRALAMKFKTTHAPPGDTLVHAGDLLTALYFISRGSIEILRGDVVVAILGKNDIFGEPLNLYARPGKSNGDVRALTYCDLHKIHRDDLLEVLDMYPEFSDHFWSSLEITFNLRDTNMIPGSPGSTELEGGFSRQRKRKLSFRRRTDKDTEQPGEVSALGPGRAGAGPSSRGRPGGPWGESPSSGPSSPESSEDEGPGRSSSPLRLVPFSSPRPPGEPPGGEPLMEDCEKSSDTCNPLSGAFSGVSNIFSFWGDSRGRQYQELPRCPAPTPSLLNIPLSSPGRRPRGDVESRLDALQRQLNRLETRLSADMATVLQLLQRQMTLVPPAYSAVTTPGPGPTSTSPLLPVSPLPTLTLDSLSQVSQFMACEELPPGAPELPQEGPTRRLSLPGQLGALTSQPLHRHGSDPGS
Cannabinoid receptor 2 (Mus musculus), sequence (P47936 whole entry): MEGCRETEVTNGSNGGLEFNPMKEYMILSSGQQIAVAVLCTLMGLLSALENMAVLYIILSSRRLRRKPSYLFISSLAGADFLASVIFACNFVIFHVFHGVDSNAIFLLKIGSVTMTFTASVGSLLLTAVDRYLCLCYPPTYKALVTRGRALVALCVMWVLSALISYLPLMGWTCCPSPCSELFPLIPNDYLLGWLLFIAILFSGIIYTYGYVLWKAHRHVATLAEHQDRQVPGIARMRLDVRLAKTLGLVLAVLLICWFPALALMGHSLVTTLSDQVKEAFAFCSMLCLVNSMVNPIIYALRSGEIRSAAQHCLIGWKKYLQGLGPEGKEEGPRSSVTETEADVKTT
Cytochrome P450 3A4, sequence (P08684 whole entry): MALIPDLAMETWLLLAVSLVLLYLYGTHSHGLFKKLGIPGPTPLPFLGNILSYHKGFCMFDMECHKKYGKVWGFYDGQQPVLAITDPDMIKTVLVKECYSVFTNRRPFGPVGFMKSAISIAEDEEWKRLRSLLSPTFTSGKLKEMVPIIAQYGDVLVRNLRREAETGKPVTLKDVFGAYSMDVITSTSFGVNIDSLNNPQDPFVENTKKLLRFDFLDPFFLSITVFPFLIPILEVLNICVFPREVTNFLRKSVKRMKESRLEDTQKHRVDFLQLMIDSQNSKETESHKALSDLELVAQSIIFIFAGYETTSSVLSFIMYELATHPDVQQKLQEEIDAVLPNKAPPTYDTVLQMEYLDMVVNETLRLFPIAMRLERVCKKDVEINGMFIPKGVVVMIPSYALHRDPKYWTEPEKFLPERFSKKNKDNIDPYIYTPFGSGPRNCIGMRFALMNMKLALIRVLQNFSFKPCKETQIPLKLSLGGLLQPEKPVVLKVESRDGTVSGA
Cytochrome P450 2C19, sequence (P33261 whole entry): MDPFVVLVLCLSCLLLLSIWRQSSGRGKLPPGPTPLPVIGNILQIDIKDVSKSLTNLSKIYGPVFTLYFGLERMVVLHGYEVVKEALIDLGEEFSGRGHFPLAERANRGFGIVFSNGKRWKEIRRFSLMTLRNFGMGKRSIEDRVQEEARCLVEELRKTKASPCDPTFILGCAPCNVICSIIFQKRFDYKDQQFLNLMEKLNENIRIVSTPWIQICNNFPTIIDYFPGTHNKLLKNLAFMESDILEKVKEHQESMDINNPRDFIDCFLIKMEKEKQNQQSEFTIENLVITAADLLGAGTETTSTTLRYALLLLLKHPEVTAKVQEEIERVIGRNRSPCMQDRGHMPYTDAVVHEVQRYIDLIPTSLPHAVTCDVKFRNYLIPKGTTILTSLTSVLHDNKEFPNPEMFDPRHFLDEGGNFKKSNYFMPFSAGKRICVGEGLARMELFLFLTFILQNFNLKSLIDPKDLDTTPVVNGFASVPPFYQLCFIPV
Cytochrome P450 2D6, sequence (P10635 whole entry): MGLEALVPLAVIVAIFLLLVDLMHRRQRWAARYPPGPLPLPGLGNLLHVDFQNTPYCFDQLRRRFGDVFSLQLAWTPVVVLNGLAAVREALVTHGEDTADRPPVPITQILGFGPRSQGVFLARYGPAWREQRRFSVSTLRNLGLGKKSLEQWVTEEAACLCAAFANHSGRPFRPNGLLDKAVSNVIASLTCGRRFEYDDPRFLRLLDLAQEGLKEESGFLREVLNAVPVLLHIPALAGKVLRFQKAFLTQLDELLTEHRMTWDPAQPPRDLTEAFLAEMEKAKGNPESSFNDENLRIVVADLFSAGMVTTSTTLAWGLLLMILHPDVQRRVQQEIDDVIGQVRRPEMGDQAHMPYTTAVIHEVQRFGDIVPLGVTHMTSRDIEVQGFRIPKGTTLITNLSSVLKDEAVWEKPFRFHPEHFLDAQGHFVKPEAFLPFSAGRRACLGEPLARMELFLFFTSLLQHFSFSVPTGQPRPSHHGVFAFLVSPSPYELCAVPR
Cytochrome P450 2C9, sequence (P11712 whole entry): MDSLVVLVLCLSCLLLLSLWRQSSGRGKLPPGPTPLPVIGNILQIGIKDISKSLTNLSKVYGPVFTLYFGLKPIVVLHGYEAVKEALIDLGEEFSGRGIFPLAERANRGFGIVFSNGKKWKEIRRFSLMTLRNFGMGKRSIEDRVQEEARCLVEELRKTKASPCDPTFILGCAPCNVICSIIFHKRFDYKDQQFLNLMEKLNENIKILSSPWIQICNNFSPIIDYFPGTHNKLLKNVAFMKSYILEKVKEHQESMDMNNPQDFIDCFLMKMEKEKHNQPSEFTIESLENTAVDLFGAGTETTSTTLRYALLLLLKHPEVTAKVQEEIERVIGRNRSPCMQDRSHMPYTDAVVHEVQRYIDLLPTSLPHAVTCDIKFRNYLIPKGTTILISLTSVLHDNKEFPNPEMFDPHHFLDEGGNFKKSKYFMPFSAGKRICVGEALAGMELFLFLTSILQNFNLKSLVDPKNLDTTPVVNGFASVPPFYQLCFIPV

COc1ccc(-c2ccc(CO[C@H]3C[C@@H](N=C=S)C3)nc2)cc1F
IC50 [1]: 19 µM
IC50 (Cytochrome P450 3A4): 2.6 µM
bioavailability [2]: 13%
concentration at 0.5 h [3]: 16 ng/mL
IC50 (Cytochrome P450 1A2): 1.8 µM
Activity [4]: Non-Toxic
half-life [5]: 45.5 min
Activity [6]: Non-Toxic
Activity [7]: Non-Toxic
AUC at 8 h [8]: 41.3 ng·h/mL
inhibition (INH) (Cytochrome P450 2C9): Not Active
half-life at 1 µM [9]: 28.2 min
CL/F [10]: 2760 mL/min/kg
IC50 (Cytochrome P450 2C19): 3.3 µM
Kp [11]: 0.25
Vd [12]: 27 L/kg
Activity [13]: Non-Toxic
concentration at 1 h [14]: 54 ng/mL
clearance [15]: 412 mL/min/kg
inhibition [16]: inactive
IC50 (Cathepsin K): 0.12 µM
inhibition (INH) (Cytochrome P450 2D6): Not Active
inhibition (INH) (Cytochrome P450 2A6): Not Active
Activity [17]: Non-Toxic
Activity [18]: Non-Toxic
half-life at 1 µM [19]: 16.7 min
concentration at 0.25 h [20]: 873 ng/g
inhibition [21]: inactive
